This is an account of results in US20060161007A1, “Oxazole and thiazole combinatorial libraries” (priority 1999, published 2006).

One data set concerns DNA. The data set can be described thus: DNA binding activity by capillary zone electrophoresis. The procedure:
The DNA binding activity of the tetrapeptide amides in the first library was measured using capillary zone electrophoresis.

Data set [1] can be described thus: solubility of building block 3 in solvents. The data set is classed as physicochemical. As to the method: 2-(2′-Boc-aminomethyl-oxazole-4′-yl)-thiazole-4-carboxylic acid (37) (0.65 g, 2 mmol) was added in 30 ml of 40% TFA in DCM and stirred for 60 min. The solvent was removed by concentration under reduced pressure. The residue was diluted with 10 ml of water, which was neutralized to pH 7 by adding 1 M sodium hydroxide (aqueous solution), followed by addition of solid sodium carbonate (0.42 g, 4 mmole) and a solution of Fmoc-OSu (1 g, 3 mmole) in 60 ml of THF. After stirring for 2 hours (white solid precipitated), the reaction mixture was concentrated under reduced pressure to remove the THF, and diluted with 30 ml of water. The aqueous solution was washed with DCM (50 ml×3), and acidified to pH 3 by adding 10% potassium hydrogensulfate (aqueous solution). The white solid which formed was collected by filtration. This product was insoluble in DCM, ether, EtOAc, THF, methanol, ethanol, acetonitrile, HFIP, DMF, NMP and water. It was soluble in DMSO or the solutions containing more than 50% DMSO in DMF or NMP. The product was recrystallized in DMSO-water to give a fine white powder (0.69 g). Yield: 77%. RP-HPLC analysis: retention […]=14.18 min (average of two runs). ^1H-NMR (90 MHz, DMSO-d6) δ ppm: 8.74 (s, 1H), 8.38 (s, 1H), 7.89-7.31 (m, 8H), and 4.394.30 (m, 5H). ESI-MS (m/z): 448.2 [M +H]+, (calculated monoisotopic mass 448.10), 470.2 [M+Na]^+, 486.2 [M+K]^+.

The next data set relates to Vibrio anguillarum. The data set can be described thus: growth of Vibrio anguillarum cultures (OD650) after incubation with peptide. The class given is cell-based. The settings on record: for effect on the growth of V. anguillarum cultures: result in words; for OD650 of V. anguillarum cultures: 28°; for killing of the bacteria: OD of the cultures still increased at different incubation times. The procedure: The marin bacterium Vibrio anguillarum, a fish pathogen causing the disease “vibriosis” in marine fish and shellfish were used in this experiment.
Bacteria (V. anguillarum) were grown overnight at 28° C. in Luria-Bertani (LB) 20 medium (the concentration of NaCl is 20 g/L for marine bacteria in LB medium, instead of the usual 10 g/L). The culture was re-inoculated and incubated in LB20 medium at 28° C. (ca. 2hr) to reach the exponential growth phase of the bacteria. The bacterial suspension was then dilute with 0.1×LB20 medium to make the bacterial dilution containing 2×10^3 colony-forming units (cfm)/ml.
At time zero, the bacteria were treated with the peptide in 0.1×LB20 medium. After incubation for 3 hours, 1×LB20 medium was added to the culture, and incubated for 20 hours.

[2] abbreviates: 31.2 μM peptide, 9 hr incubation.
[3] abbreviates: 31.2 μM peptide, 20 hr incubation.
Where [4] appears, read: 62.5 μM peptide, 9 hr incubation.
[5] abbreviates: 62.5 μM peptide, 20 hr incubation.
Where [6] appears, read: 125 μM peptide, 9 hr incubation.
Setting [7] is: 125 μM peptide, 20 hr incubation.
Where [8] appears, read: 250 μM peptide, 9 hr incubation.
[9] abbreviates: 250 μM peptide, 20 hr incubation.
The mark [10] stands for this setting: 500 μM peptide, 9 hr incubation.
Where [11] appears, read: 500 μM peptide, 20 hr incubation.

On to “2-(2′-Fmoc-aminomethyl-oxazole-4′-yl)-thiazole-4-carboxylic acid [Compound 3]”, for which, in the data set with DNA, the “Ka(1), stoichiometric equilibrium binding constant near saturation” value stood at 20000 M⁻¹.
Take “2-(Fmoc-aminomethyl)-oxazole-4-carboxylic acid [Compound 2]”: the “Ka(1), stoichiometric equilibrium binding constant near saturation” value in the data set on DNA came to 24000 M⁻¹.
As to “2-(Fmoc-aminomethyl)-thiazole-4-carboxylic acid [Compound 1]”, the “Ka(1), stoichiometric equilibrium binding constant near saturation” value in the data set on DNA was 25000 M⁻¹.
In the case of `O=C(NCc1nc(-c2nc(C(=O)O)cs2)co1)OCC1c2ccccc2-c2ccccc21` [Compound 3, 2-(2′-Fmoc-aminomethyl-oxazole-4′-yl)-thiazole-4-carboxylic acid], the solubility entry is listed as “did not dissolve” in data set [1] (in DCM, ethyl ether, EtOAc, THF, methanol, ethanol, acetonitrile, HFIP, DMF, NMP or water); “insoluble” in data set [1] (in DCM, ethyl ether, EtOAc, THF, methanol, ethanol, acetonitrile, HFIP, DMF, NMP or water, listed as Compound (3)); “could only dissolve” in data set [1] (in DMSO, or solutions containing at least 50% DMSO in DMF or NMP); “soluble” in data set [1] (in DMSO, or solutions containing at least 50% DMSO in DMF or NMP, listed as Compound (3)).
For the compound `CC(=O)NCc1nc(-c2nc(C(=O)NCC(=O)NCc3nc(C(=O)NCCCN)cs3)cs2)co1` [Compound L2-3], in the data set with Vibrio anguillarum, the “effect on the growth of V. anguillarum cultures” value (shortened to “effect on the growth”) is “did not have a detectable effect”.
For `CC(=O)NCc1nc(-c2nc(C(=O)NCC(=O)NCc3nc(C(=O)NCCCN)co3)cs2)co1` [Compound L2-6], the “OD650 of V. anguillarum cultures” value in the data set on Vibrio anguillarum (setting [2]) came out at 0.137; in the data set on Vibrio anguillarum (setting [3]), 0.395; in the data set with Vibrio anguillarum (setting [4]), 0.130; with Vibrio anguillarum (setting [5]) it was 0.391; in the data set with Vibrio anguillarum (setting [6]) it was 0.120; in the data set with Vibrio anguillarum (setting [7]), 0.402. The “OD650 of V. anguillarum cultures” value in the data set with Vibrio anguillarum (setting [8]) is given as 0.113; with Vibrio anguillarum (setting [9]), 0.427; with Vibrio anguillarum (setting [10]), 0.073; in the data set on Vibrio anguillarum (setting [11]), 0.388. Moreover, the “killing of the bacteria” value in the data set on Vibrio anguillarum is “did not kill the bacteria”. Also, the “effect on the growth” value in the data set with Vibrio anguillarum was “inhibited the growth”.
`CC(=O)NCc1nc(-c2nc(C(=O)NCC(=O)NCc3nc(-c4nc(C(=O)NCCCN)cs4)co3)cs2)co1` [Compound L2-9]: the “OD650 of V. anguillarum cultures” value came out at 0.135 in the data set on Vibrio anguillarum (setting [2]); 0.417 with Vibrio anguillarum (setting [3]); 0.135 in the data set with Vibrio anguillarum (setting [4]); 0.421 in the data set with Vibrio anguillarum (setting [5]); 0.131 with Vibrio anguillarum (setting [6]); 0.425 with Vibrio anguillarum (setting [7]). In addition, the “OD650 of V. anguillarum cultures” value is on record as 0.125 with Vibrio anguillarum (setting [8]), 0.409 with Vibrio anguillarum (setting [9]), 0.075 in the data set with Vibrio anguillarum (setting [10]) and 0.354 with Vibrio anguillarum (setting [11]). The “killing of the bacteria” value with Vibrio anguillarum was “did not kill the bacteria”. Moreover, the “effect on the growth” value in the data set with Vibrio anguillarum was “inhibited the growth”.
Consider “Microcin B17 fragment 13-23 [Compound 39]”, for which the “OD650 of V. anguillarum cultures” value worked out at 0.111 with Vibrio anguillarum (setting [2]); 0.419 with Vibrio anguillarum (setting [3]); 0.082 with Vibrio anguillarum (setting [4]); 0.297 in the data set with Vibrio anguillarum (setting [5]); 0.051 in the data set on Vibrio anguillarum (setting [6]); 0.279 in the data set on Vibrio anguillarum (setting [7]). Besides, the “OD650 of V. anguillarum cultures” value in the data set with Vibrio anguillarum (setting [8]) amounted to 0.034; in the data set on Vibrio anguillarum (setting [9]) it was 0.241; in the data set on Vibrio anguillarum (setting [10]), 0.034; in the data set on Vibrio anguillarum (setting [11]), 0.244. In the data set with Vibrio anguillarum, the “killing of the bacteria” value is on record as “did not kill the bacteria”. For the same compound, the “effect on the growth” value in the data set with Vibrio anguillarum was “inhibited the growth”.
In the case of tachyplesin [reference compound], the “OD650 of V. anguillarum cultures” value was 0.068 with Vibrio anguillarum (6.25 μg/ml peptide, 9 hr incubation); 0.036 with Vibrio anguillarum (6.25 μg/ml peptide, 20 hr incubation); 0.035 in the data set with Vibrio anguillarum (12.5 μg/ml peptide, 9 hr incubation); 0.035 in the data set with Vibrio anguillarum (12.5 μg/ml peptide, 20 hr incubation); 0.035 in the data set with Vibrio anguillarum (25 μg/ml peptide, 9 hr incubation); 0.035 in the data set on Vibrio anguillarum (25 μg/ml peptide, 20 hr incubation). Also, the “OD650 of V. anguillarum cultures” value in the data set on Vibrio anguillarum (50 μg/ml peptide, 9 hr incubation) was determined as 0.039; in the data set on Vibrio anguillarum (50 μg/ml peptide, 20 hr incubation), 0.038; with Vibrio anguillarum (Dilution 5 (31.2 μg/ml) peptide, 9 hr incubation), 0.098; in the data set with Vibrio anguillarum (Dilution 5 (31.2 μg/ml) peptide, 20 hr incubation), 0.034.
